Read-outs that look alike come from different tables or passages of the source.
Assays:
Format in all cases: cell-based
[1] = tested on: MDA-MB-231 (triple-negative breast cancer); test: MTT cytotoxicity assay, MDA-MB-231; conditions: for IC50: read-out: IC50 MDA-MB-231; for SI^1 = IC50 (MCF-10A)/IC50 (MDA-MB-231): selectivity index
Description: (§1) HTB-26), MCF-7 (hormone-dependent breast cancer, ATCC: HTB−22), A549 (lung cancer, ATCC: CCL-185) and A2780cis (cisplatin-resistant ovarian cancer), and the non-tumour cell lines: MCF-10A (breast epithelial cells, ATCC: CRL-10317) and MRC-5 (lung fibroblast, ATCC: […] All the cells were maintained at 37°C in a humidified incubator with a 5% CO2 atmosphere. […] Then, the cells were treated with the compounds, solubilized in DMSO, at different concentrations and the plates were incubated for 48 h. To solubilize cisplatin, dimethylformamide (DMF) was used. The percentage of DMSO and DMF used in the assay was 0.5%. Afterwards, 50 μl of MTT (0.5 mg ml^−1 in phosphate-buffered saline) was added to each well of the plate and the plates were incubated for 4 h at 37°C. Then, the culture medium was removed, and the water-insoluble formazan crystals formed were solubilized by the addition of 100 μl isopropanol. The absorbance was recorded at 540 nm using a microplate reader. The half maximal inhibitory concentration (IC50) values were obtained using the GRAPHPAD PRISM software.

[2] = tested on: MCF-7 (hormone-dependent breast cancer); test: MTT cytotoxicity assay, MCF-7; conditions: for IC50 fold lower than that of cisplatin: MCF-7 cells; for IC50: read-out: IC50 MCF-7; for SI^2 = IC50 (MCF-10A)/IC50 (MCF-7): selectivity index
Description: as §1

[3] = tested on: MCF-10A (non-tumour breast epithelial cells); test: MTT cytotoxicity assay, MCF-10A; conditions: read-out: IC50 MCF-10A
Description: as §1

[4] = tested on: A2780cis (cisplatin-resistant ovarian cancer); test: MTT cytotoxicity assay, A2780cis; conditions: for IC50: read-out: IC50 A2780cis; for SI^3 = IC50 (MRC-5)/IC50 (A2780cis): selectivity index, column head prints IS^3
Description: as §1

A549 (lung cancer) = test: MTT cytotoxicity assay, A549; conditions: for IC50 of cisplatin fold higher than IC50 of the complex: A549 cells; for IC50: read-out: IC50 A549; for SI^4 = IC50 (MRC-5)/IC50 (A549): selectivity index, column head prints IS^4
Description: as §1

[5] = tested on: MRC-5 (non-tumour lung fibroblast); test: MTT cytotoxicity assay, MRC-5; conditions: read-out: IC50 MRC-5
Description: as §1

[6] = tested on: MDA-MB-231, MCF-7, A549, A2780cis, MRC-5 and MCF-10A cell lines; test: MTT cytotoxicity assay, all cell lines studied; conditions: tested concentrations (<100 µM)
Description: The MDA-MB-231, A549 and MRC5 cell lines were cultured in Dulbecco’s modified eagle medium (DMEM) containing 10% fetal bovine serum (FBS), penicillin (100 IU ml^−1), streptomycin (100 mg ml^−1) and L-glutamine (2 mM). The MCF-7 and A2780cis cells were grown in the Roswell Park Memorial Institute (RPMI) containing 10% FBS, penicillin (100 IU ml^−1), streptomycin (100 mg ml^−1) and L-glutamine (2 mM). The MCF-10A cells were grown in DMEM nutrient mixture F-12 (DMEM F-12) containing 5% fetal horse serum, epidermal growth factor (EGF) (20 ng ml^−1), hydrocortisone (0.5 µg ml^−1), insulin (0.01 mg ml^−1), 1% penicillin and 1% streptomycin. All the cells were maintained at 37°C in a humidified incubator with a 5% CO2 atmosphere.
The cytotoxic activities of the free ligands and complexes were analysed by MTT (3-[4,5-dimethylthiazol-2-yl]-2,5 diphenyl tetrazolium bromide) assay [32]. For that, cells were plated in 96-well plates (1.5 × 10^4 cells well^−1) and kept for 24 h in an incubator with 5% CO2 and 37°C for adherence. Then, the cells were treated with the compounds, solubilized in DMSO, at different concentrations and the plates were incubated for 48 h. […] The percentage of DMSO and DMF used in the assay was 0.5%. […] The absorbance was recorded at 540 nm using a microplate reader.

[7] = Homo sapiens, MDA-MB-231, MTT, 48 h incubation
[8] = Homo sapiens, MCF7, MTT, 48 h incubation
[9] = Homo sapiens, MCF-10A, MTT, 48 h incubation
[10] = Homo sapiens, A549, MTT, 48 h incubation
[11] = Homo sapiens, MRC5, MTT, 48 h incubation

SMILES	IC50 ([1]; MTT, 48 h incubation)	SI^1 = IC50 (MCF-10A)/IC50 (MDA-MB-231) [1]	IC50 ([2]; MTT, 48 h incubation)	SI^2 = IC50 (MCF-10A)/IC50 (MCF-7) [2]	IC50 ([3]; MTT, 48 h incubation)	IC50 ([4]; MTT, 48 h incubation)	SI^3 = IC50 (MRC-5)/IC50 (A2780cis) [4]	IC50 (A549 (lung cancer); MTT, 48 h incubation)	SI^4 = IC50 (MRC-5)/IC50 (A549) (A549 (lung cancer))	IC50 ([5]; MTT, 48 h incubation)	further results
CC(=O)C=C(C)[O-].F[P-](F)(F)(F)(F)F.[Ru+2].c1ccc(-c2ccccn2)nc1.c1ccc(P(c2ccccc2)c2ccccc2)cc1.c1ccc(P(c2ccccc2)c2ccccc2)cc1 [Ru1, [Ru(acac)(PPh3)2(bipy)]PF6]	2.09 ± 0.46 µM	0.81	1.86 µM	0.91	1.7 µM	0.59 µM	8.34	1.43 µM	3.44	4.92 µM	IC50 fold lower than that of cisplatin [2]: 7.5 fold; IC50 of cisplatin fold higher than IC50 of the complex (A549 (lung cancer)): 8 fold
F[P-](F)(F)(F)(F)F.O=C(C=C([O-])c1ccccc1)c1ccccc1.[Ru+2].c1ccc(-c2ccccn2)nc1.c1ccc(P(c2ccccc2)c2ccccc2)cc1.c1ccc(P(c2ccccc2)c2ccccc2)cc1 [Ru2, [Ru(dbm)(PPh3)2(bipy)]PF6]	3.37 µM	0.50	1.74 µM	0.98	1.71 µM	0.39 µM	12.43	1.06 µM	4.57	4.85 µM	IC50 fold lower than that of cisplatin [2]: 8.0 fold; IC50 of cisplatin fold higher than IC50 of the complex (A549 (lung cancer)): 11 fold
COc1cc(C=CC(=O)C=C([O-])C=Cc2ccc(O)c(OC)c2)ccc1O.F[P-](F)(F)(F)(F)F.[Ru+2].c1ccc(-c2ccccn2)nc1.c1ccc(P(c2ccccc2)c2ccccc2)cc1.c1ccc(P(c2ccccc2)c2ccccc2)cc1 [Ru3, [Ru(cur)(PPh3)2(bipy)]PF6]	6.8 µM	0.94	–	0.45	6.41 µM	0.82 µM	–	> 30 µM	–	> 30 µM	–
CC(=O)CC(C)=O [acac, acetylacetonate]	–	–	–	–	–	–	–	–	–	–	IC50 [1, 7]: > 100 µM; IC50 [2, 8]: > 100 µM; IC50 [3, 9]: > 100 µM; IC50 ([4]; A2780cis, MTT, 48 h incubation): > 100 µM; IC50 (A549 (lung cancer); [10]): > 100 µM; IC50 [5, 11]: > 100 µM; cytotoxic activity (in words) [6]: did not exhibit activity
N.N.[Cl][Pt][Cl] [cisplatin, cis-diamminedichloridoplatinum(II)]	10.2 µM	–	14 µM	–	29.4 µM	–	–	–	–	–	–
COc1cc(/C=C/C(=O)CC(=O)/C=C/c2ccc(O)c(OC)c2)ccc1O [cur, curcumin]	–	0.57	–	0.84	–	–	2.24	–	0.27	–	IC50 [1, 7]: 29.7 µM; IC50 [2, 8]: 20 µM; IC50 [3, 9]: 16.9 µM; IC50 ([4]; A2780cis, MTT, 48 h incubation): 4.02 µM; IC50 (A549 (lung cancer); [10]): 33.3 µM; IC50 [5, 11]: 8.99 µM
O=C(CC(=O)c1ccccc1)c1ccccc1 [dbm, dibenzoylmethane]	–	0.85	–	4.34	–	–	0.15	–	0.41	–	IC50 ([1]; Homo sapiens, MDA-MB-231, 48 h): 59.6 µM; IC50 ([2]; Homo sapiens, MCF7, 48 h): 11.7 µM; IC50 ([3]; Homo sapiens, MCF-10A, 48 h): 50.7 µM; IC50 ([4]; A2780cis, 48 h): 62.6 µM; IC50 (A549 (lung cancer); Homo sapiens, A549, 48 h): 23.1 µM; IC50 ([5]; Homo sapiens, MRC5, 48 h): 9.54 µM

From paper PMC11289651, “Ruthenium(II) complexes of curcumin and β-diketone derivatives: effect of structural modifications on their cytotoxicity” (Royal Society Open Science, 2024)
